Assay results as given in patent US10308644B2, “Heterocyclic compounds as immunomodulators” (Incyte Corporation, priority 2016, dated 2019).

Target: PD-1/PD-L1 (Homo sapiens (Human), UniProt Q9NZQ7)
Assay: PD-1/PD-L1 Homogeneous Time-Resolved Fluorescence (HTRF) Binding Assay
Details: recombinant human PD-1 (3 nM) and PD-L1 (10 nM), 25° C., PBS pH 7.4
Summary of the method: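 Fc-tagged human PD-1 (25-167, 3 nM) and His-tagged PD-L1 (19-238, 10 nM) preincubated with inhibitor 40 min in PBS pH 7.4, 0.05% Tween-20, 0.1% BSA, 1% DMSO, 25 °C. Binding detected by HTRF (Eu anti-IgG/APC anti-His, 665/620 nm) after 60 min; IC50 from percent control activity.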

Chain of PD-1/PD-L1 (Q9NZQ7 19-238): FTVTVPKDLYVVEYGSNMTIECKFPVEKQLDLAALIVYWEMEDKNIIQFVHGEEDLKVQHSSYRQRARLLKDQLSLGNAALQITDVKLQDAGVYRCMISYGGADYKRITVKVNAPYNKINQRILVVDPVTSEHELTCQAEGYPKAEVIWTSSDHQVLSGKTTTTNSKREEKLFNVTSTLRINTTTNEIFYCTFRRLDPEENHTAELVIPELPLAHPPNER

| SMILES | IC50 |
| --- | --- |
| Cc1c(-c2nc3c(o2)CCNC3)cccc1-c1cccc(-c2nc3cc(CN4CC[C@@H](C(=O)O)C4)cc(Cl)c3o2)c1C [Example 74, (R)-1-((7-chloro-2-(2,2′-dimethyl-3′-(4,5,6,7-tetrahydrooxazolo[4,5-c]pyridin-2-yl)-[1,1′-biphenyl]-3-yl)benzo[d]oxazol-5-yl)methyl)pyrrolidine-3-carboxylic acid] | ≤ 10 nM |
| Cc1c(-c2nc3c(o2)CCNC3)cccc1-c1cccc(-c2nc3cc(CN4CC[C@H](C(=O)O)C4)cc(Cl)c3o2)c1C [Example 76, (S)-1-((7-chloro-2-(2,2′-dimethyl-3′-(4,5,6,7-tetrahydrooxazolo[4,5-c]pyridin-2-yl)-[1,1′-biphenyl]-3-yl)benzo[d]oxazol-5-yl)methyl)pyrrolidine-3-carboxylic acid] | ≤ 10 nM |
| Cc1c(-c2nc3c(o2)CCNC3)cccc1-c1cccc(-c2nc3cc(CN4CC(C(=O)O)C4)cc(Cl)c3o2)c1C [Example 77, 1-((7-chloro-2-(2,2′-dimethyl-3′-(4,5,6,7-tetrahydrooxazolo[4,5-c]pyridin-2-yl)-[1,1′-biphenyl]-3-yl)benzo[d]oxazol-5-yl)methyl)azetidine-3-carboxylic acid] | ≤ 10 nM |
| Cc1c(-c2nc3c(o2)CNCC3)cccc1-c1cccc(-c2nc3cc(CN4CC[C@@H](C(=O)O)C4)cc(Cl)c3o2)c1C [Example 78, (R)-1-((7-chloro-2-(2,2′-dimethyl-3′-(4,5,6,7-tetrahydrooxazolo[5,4-c]pyridin-2-yl)-[1,1′-biphenyl]-3-yl)benzo[d]oxazol-5-yl)methyl)pyrrolidine-3-carboxylic acid] | ≤ 10 nM |
| Cc1c(-c2nc3cc(CN4CC[C@@H](C(=O)O)C4)cc(C#N)c3o2)cccc1-c1cccc(-c2nc3c(s2)C(C)(C)N(C)CC3)c1C [Example 79, (R)-1-((7-cyano-2-(2,2′-dimethyl-3′-(4,4,5-trimethyl-4,5,6,7-tetrahydrothiazolo[5,4-c]pyridin-2-yl)-[1,1′-biphenyl]-3-yl)benzo[d]oxazol-5-yl)methyl)pyrrolidine-3-carboxylic acid] | ≤ 10 nM |
| Cc1c(-c2nc3cc(CN4CC[C@H](C(=O)O)C4)cc(Cl)c3o2)cccc1-c1cccc(Nc2nccc3cc(CN4CC[C@@H](O)C4)cnc23)c1Cl [Example 81, (S)-1-((7-chloro-2-(2′-chloro-3′-(3-(((R)-3-hydroxypyrrolidin-1-yl)methyl)-1,7-naphthyridin-8-ylamino)-2-methylbiphenyl-3-yl)benzo[d]oxazol-5-yl)methyl)pyrrolidine-3-carboxylic acid] | ≤ 10 nM |
| Cc1c(-c2nc3cc(CN4CC[C@@H](C(=O)O)C4)cc(Cl)c3o2)cccc1-c1cccc(Nc2nccc3cc(CN4CC[C@@H](O)C4)cnc23)c1Cl [Example 82, (R)-1-((7-chloro-2-(2′-chloro-3′-(3-(((R)-3-hydroxypyrrolidin-1-yl)methyl)-1,7-naphthyridin-8-ylamino)-2-methylbiphenyl-3-yl)benzo[d]oxazol-5-yl)methyl)pyrrolidine-3-carboxylic acid] | ≤ 10 nM |
| Cc1c(-c2nc3cc(CN4CC[C@H](C(=O)O)C4)cc(C#N)c3o2)cccc1-c1cccc(Nc2nccc3cc(CN4CC[C@@H](O)C4)cnc23)c1Cl [Example 83, (S)-1-((2-(2′-chloro-3′-(3-(((R)-3-hydroxypyrrolidin-1-yl)methyl)-1,7-naphthyridin-8-ylamino)-2-methylbiphenyl-3-yl)-7-cyanobenzo[d]oxazol-5-yl)methyl)pyrrolidine-3-carboxylic acid] | ≤ 10 nM |
| Cc1c(-c2nc3cc(CN4CC[C@@H](C(=O)O)C4)cc(C#N)c3o2)cccc1-c1cccc(Nc2nccc3cc(CN4CC[C@@H](O)C4)cnc23)c1Cl [Example 84, (R)-1-((2-(2′-chloro-3′-(3-(((R)-3-hydroxypyrrolidin-1-yl)methyl)-1,7-naphthyridin-8-ylamino)-2-methylbiphenyl-3-yl)-7-cyanobenzo[d]oxazol-5-yl)methyl)pyrrolidine-3-carboxylic acid] | ≤ 10 nM |
| Cc1c(Nc2nccc3cc(CN4CC[C@@H](O)C4)cnc23)cccc1-c1cccc(-c2nc3cc(CN4CC(C(=O)O)C4)cc(C#N)c3o2)c1C [Example 85, (R)-1-((7-cyano-2-(3′-(3-((3-hydroxypyrrolidin-1-yl)methyl)-1,7-naphthyridin-8-ylamino)-2,2′-dimethylbiphenyl-3-yl)benzo[d]oxazol-5-yl)methyl)azetidine-3-carboxylic acid] | ≤ 10 nM |
| Cc1c(Nc2nccc3cc(CN4CC[C@@H](O)C4)cnc23)cccc1-c1cccc(-c2nc3cc(CNCC(C)(C)C(=O)O)cc(C#N)c3o2)c1C [Example 86, (R)-3-((7-cyano-2-(3′-(3-((3-hydroxypyrrolidin-1-yl)methyl)-1,7-naphthyridin-8-ylamino)-2,2′-dimethylbiphenyl-3-yl)benzo[d]oxazol-5-yl)methylamino)-2,2-dimethylpropanoic acid] | ≤ 10 nM |

Further lines, results first:

| IC50 | SMILES |
| --- | --- |
| ≤ 10 nM | Cc1c(-c2nc3cc(CN4CC[C@@H](C(=O)O)C4)cc(Cl)c3o2)cccc1-c1cccc(-c2nc3c(s2)CN(C)CC3)c1C [Example 71, (R)-1-((7-chloro-2-(2,2′-dimethyl-3′-(5-methyl-4,5,6,7-tetrahydrothiazolo[5,4-c]pyridin-2-yl)-[1,1′-biphenyl]-3-yl)benzo[d]oxazol-5-yl)methyl)pyrrolidine-3-carboxylic acid] |
| ≤ 10 nM | Cc1c(-c2nc3cc(CN4CC[C@@H](C(=O)O)C4)cc(C#N)c3o2)cccc1-c1cccc(-c2nc3c(s2)CNCC3)c1C [Example 72, (R)-1-((7-cyano-2-(2,2′-dimethyl-3′-(4,5,6,7-tetrahydrothiazolo[5,4-c]pyridin-2-yl)biphenyl-3-yl)benzo[d]oxazol-5-yl)methyl)pyrrolidine-3-carboxylic acid] |
| ≤ 10 nM | Cc1c(-c2nc3cc(CN4CC[C@@H](C(=O)O)C4)cc(C#N)c3o2)cccc1-c1cccc(-c2nc3c(s2)CN(C)CC3)c1C [Example 73] |
| ≤ 10 nM | Cc1c(-c2nc3c(o2)CCNC3)cccc1-c1cccc(-c2nc3cc(CN4CC[C@@H](C(=O)O)C4)cc(C#N)c3o2)c1C [Example 75, (R)-1-((7-cyano-2-(2,2′-dimethyl-3′-(4,5,6,7-tetrahydrooxazolo[4,5-c]pyridin-2-yl)-[1,1′-biphenyl]-3-yl)benzo[d]oxazol-5-yl)methyl)pyrrolidine-3-carboxylic acid] |
| ≤ 10 nM | Cc1c(NC(=O)c2nc3c(n2C)CCN(C)C3)cccc1-c1cccc(-c2nc3cc(CN4CC[C@@H](C(=O)O)C4)cc(C#N)c3o2)c1C [Example 80, (R)-1-((7-cyano-2-(3′-(1,5-dimethyl-4,5,6,7-tetrahydro-1H-imidazo[4,5-c]pyridine-2-carboxamido)-2,2′-dimethylbiphenyl-3-yl)benzo[d]oxazol-5-yl)methyl)pyrrolidine-3-carboxylic acid] |
| ≤ 10 nM | Cc1c(-c2nc3cc(CN4CC[C@@H](C(=O)O)C4)cc(C#N)c3o2)cccc1-c1cccc(-n2cc3c(n2)CN(C(C)C)CC3)c1Cl [Example 87, (R)-1-((2-(2′-chloro-3′-(6-isopropyl-4,5,6,7-tetrahydro-2H-pyrazolo[3,4-c]pyridin-2-yl)-2-methylbiphenyl-3-yl)-7-cyanobenzo[d]oxazol-5-yl)methyl)pyrrolidine-3-carboxylic acid] |
| ≤ 10 nM | Cc1c(-c2nc3cc(CN4CC[C@@](C)(C(=O)O)C4)cc(C#N)c3o2)cccc1-c1cccc(NC(=O)c2nc3c(n2C)CCN(C)C3)c1Cl [Example 88, (R)-1-((2-(2′-chloro-3′-(1,5-dimethyl-4,5,6,7-tetrahydro-1H-imidazo[4,5-c]pyridine-2-carboxamido)-2-methylbiphenyl-3-yl)-7-cyanobenzo[d]oxazol-5-yl)methyl)-3-methylpyrrolidine-3-carboxylic acid] |
| ≤ 10 nM | Cc1c(-c2nc3cc(CN4CCC(C(=O)O)CC4)cc(C#N)c3o2)cccc1-c1cccc(NC(=O)c2nc3c(n2C)CCN(C)C3)c1Cl [Example 89, 1-((2-(2′-chloro-3′-(1,5-dimethyl-4,5,6,7-tetrahydro-1H-imidazo[4,5-c]pyridine-2-carboxamido)-2-methylbiphenyl-3-yl)-7-cyanobenzo[d]oxazol-5-yl)methyl)piperidine-4-carboxylic acid] |
| ≤ 10 nM | Cc1c(-c2nc3cc(CN[C@@H](C)C(=O)O)cc(C#N)c3o2)cccc1-c1cccc(NC(=O)c2nc3c(n2C)CCN(C)C3)c1Cl [Example 90, (S)-2-((2-(2′-chloro-3′-(1,5-dimethyl-4,5,6,7-tetrahydro-1H-imidazo[4,5-c]pyridine-2-carboxamido)-2-methylbiphenyl-3-yl)-7-cyanobenzo[d]oxazol-5-yl)methylamino)propanoic acid] |
| ≤ 10 nM | Cc1c(-c2nc3cc(CN[C@H]4CC[C@H](C(=O)O)CC4)cc(C#N)c3o2)cccc1-c1cccc(NC(=O)c2nc3c(n2C)CCN(C)C3)c1Cl [Example 91, (1R,4R)-4-((2-(2′-chloro-3′-(1,5-dimethyl-4,5,6,7-tetrahydro-1H-imidazo[4,5-c]pyridine-2-carboxamido)-2-methylbiphenyl-3-yl)-7-cyanobenzo[d]oxazol-5-yl)methylamino)cyclohexanecarboxylic acid] |
| ≤ 10 nM | Cc1c(-c2nc3cc(CN4CC[C@H](C(=O)O)C4)cc(C#N)c3o2)cccc1-c1cccc(NC(=O)c2nc3c(n2C)CCNC3)c1Cl [Example 92, (S)-1-((2-(2′-chloro-2-methyl-3′-(1-methyl-4,5,6,7-tetrahydro-1H-imidazo[4,5-c]pyridine-2-carboxamido)biphenyl-3-yl)-7-cyanobenzo[d]oxazol-5-yl)methyl)pyrrolidine-3-carboxylic acid] |
| ≤ 10 nM | Cc1c(-c2nc3cc(CN4CC[C@H](C(=O)O)C4)cc(C#N)c3o2)cccc1-c1cccc(NC(=O)c2nc3c(n2C)CCN(CCO)C3)c1Cl [Example 93, (S)-1-((2-(2′-chloro-3′-(5-(2-hydroxyethyl)-1-methyl-4,5,6,7-tetrahydro-1H-imidazo[4,5-c]pyridine-2-carboxamido)-2-methylbiphenyl-3-yl)-7-cyanobenzo[d]oxazol-5-yl)methyl)pyrrolidine-3-carboxylic acid] |
